Source: the NIST ThermoML archive (doi:10.1016/j.jct.2008.09.002)

What was measured:
[1] = xn = mol fraction of the nth substance listed; conditions: 101.3 kPa, Liquid, Vibrating tube method
[2] = molar heat capacity at constant pressure; xn = mol fraction of the nth substance listed; conditions: 101.3 kPa, Liquid, Small sample (50 mg) DSC
[3] = excess molar enthalpy (molar enthalpy of mixing); xn = mol fraction of the nth substance listed; conditions: 303.15 K, 101.3 kPa, Liquid, Calvet calorimetry

C[N+](=O)[O-] [nitromethane] + CCn1cc[n+](C)c1.O=S(=O)([O-])C(F)(F)F
Conditions	mass density, [1] [kg/m3]	molar heat capacity at constant pressure, [2] [J/K/mol]
293.15 K, x2 = 0.0525	1186.8	119.2
293.15 K, x2 = 0.0981	1217.2	130.6
293.15 K, x2 = 0.2013	1266.6	157
293.15 K, x2 = 0.3063	1300.5	183.7
293.15 K, x2 = 0.4027	1323.1	208.2
293.15 K, x2 = 0.4995	1340.5	233.2
293.15 K, x2 = 0.5934	1353.9	257.3
293.15 K, x2 = 0.6847	1364.4	280.5
293.15 K, x2 = 0.7698	1372.6	301.6
293.15 K, x2 = 0.8671	1380.5	326.9
298.15 K, x2 = 0.0525	1180.5	119.5
298.15 K, x2 = 0.0981	1211.2	130.9
298.15 K, x2 = 0.2013	1261.1	157.6
298.15 K, x2 = 0.3063	1295.4	184.4
298.15 K, x2 = 0.4027	1318.2	209.1
298.15 K, x2 = 0.4995	1335.7	234.3
298.15 K, x2 = 0.5934	1349.2	258.5
298.15 K, x2 = 0.6847	1359.9	281.9
298.15 K, x2 = 0.7698	1368.2	303.3
298.15 K, x2 = 0.8671	1376.2	328.8
303.15 K, x2 = 0.0525	1174.3	120
303.15 K, x2 = 0.0981	1205.3	131.4
303.15 K, x2 = 0.2013	1255.7	158.3
303.15 K, x2 = 0.3063	1290.3	185.2
303.15 K, x2 = 0.4027	1313.3	210.1
303.15 K, x2 = 0.4995	1331	235.5
303.15 K, x2 = 0.5934	1344.7	259.9
303.15 K, x2 = 0.6847	1355.4	283.3
303.15 K, x2 = 0.7698	1363.8	305
303.15 K, x2 = 0.8671	1371.9	330.7
308.15 K, x2 = 0.0525	1168	120.4
308.15 K, x2 = 0.0981	1199.3	131.8
308.15 K, x2 = 0.2013	1250.2	159.1
308.15 K, x2 = 0.3063	1285.2	186.1
308.15 K, x2 = 0.4027	1308.4	211.1
308.15 K, x2 = 0.4995	1326.3	236.7
308.15 K, x2 = 0.5934	1340.1	261.3
308.15 K, x2 = 0.6847	1351	284.8
308.15 K, x2 = 0.7698	1359.4	306.7
308.15 K, x2 = 0.8671	1367.6	332.7
313.15 K, x2 = 0.0525	1161.7	121
313.15 K, x2 = 0.0981	1193.4	132.4
313.15 K, x2 = 0.2013	1244.8	160
313.15 K, x2 = 0.3063	1280.1	187
313.15 K, x2 = 0.4027	1303.6	212.1
313.15 K, x2 = 0.4995	1321.6	238
313.15 K, x2 = 0.5934	1335.5	262.7
313.15 K, x2 = 0.6847	1346.5	286.3
313.15 K, x2 = 0.7698	1355.1	308.5
313.15 K, x2 = 0.8671	1363.4	334.7
318.15 K, x2 = 0.0525	1155.4	121.4
318.15 K, x2 = 0.0981	1187.4	132.8
318.15 K, x2 = 0.2013	1239.3	160.8
318.15 K, x2 = 0.3063	1275	188
318.15 K, x2 = 0.4027	1298.7	213
318.15 K, x2 = 0.4995	1316.9	239.2
318.15 K, x2 = 0.5934	1331	264.2
318.15 K, x2 = 0.6847	1342.1	287.8
318.15 K, x2 = 0.7698	1350.7	310.3
318.15 K, x2 = 0.8671	1359.1	336.7

[3]
Conditions	excess molar enthalpy [kcal/mol]
x2 = 0.1234	-0.0301
x2 = 0.2533	-0.0457
x2 = 0.3774	-0.0468
x2 = 0.5026	-0.048
x2 = 0.6253	-0.0399
x2 = 0.7438	-0.0299
x2 = 0.8668	-0.0139
